These results are taken from patent US5861395A, “Compounds useful for inhibition of farnesyl proteins transferase” (Schering Corporation, priority 1997, dated 1999).

Test [1] concerns the target farnesyl protein transferase. Put plainly: FPT IC50 (inhibition of farnesyl protein transferase, in vitro enzyme assay). The format is biochemical. The text has this: In Table 2 "Ex. No." stands for "Example Number". In Table 2, FPT IC50 results are less indicated otherwise.
A further test deals with Human tumor cells. Put plainly: Soft Agar Assay (anchorage-independent growth). The test is classed as cell-based. The settings on record: Table 4, colonies after 10-16 days at 37° C. Here is the method: Soft Agar Assay: Anchorage-independent growth is a characteristic of tumorigenic cell lines. Human tumor cells are suspended in growth medium containing 0.3% agarose and an indicated concentration of a farnesyl transferase inhibitor. The solution is overlayed onto growth medium solidified with 0.6% agarose containing the same concentration of farnesyl transferase inhibitor as the top layer. After the top layer is solidified, plates are incubated for 10-16 days at 37° C. under 5% CO2 to allow colony outgrowth. […] Colonies can be counted and the IC50 's can be determined.

A further test concerns COS Cell. In words: COS Cell IC50 (Cell-Based Assay). Here is the method:
FPT IC50 (inhibition of farnesyl protein transferase, in vitro enzyme assay), GGPT IC50 (inhibition of geranylgeranyl protein transferase, in vitro enzyme assay) and COS Cell IC50 (Cell-Based Assay) were determined following the assay procedures described in WO 95/10516, published Apr. 20, 1995. Cell Mat Assay, and anti-tumor activity (in vivo anti-tumor studies) could be determined by the assay procedures described in WO 95/10516. The disclosure of WO 95/10516 is incorporated herein by reference thereto.

pIC50: −log10 of the molar value. A value given as a limit tells only on which side of the number the result lay.

Usually pIC50 stands for the IC50 on a negative log10 scale, so that one unit is a factor of ten. For `O=C1NC[C@@H](C(=O)N2CCC(CC(=O)N3CCC([C@H]4c5ncc(Br)cc5CCc5cc(Cl)cc(Br)c54)CC3)CC2)N1` [Compound 15.0-B], the pIC50 in test [1] (Table 3) is 8.70; with Human tumor cells (Homo sapiens) it was 6.55; in the test with Human tumor cells, 6.43; in the test with COS Cell (Table 4), 7.48.

On to `O=C(O)c1cncc(C(=O)N2CCC(CC(=O)N3CCC([C@H]4c5ncc(Br)cc5CCc5cc(Cl)cc(Br)c54)CC3)CC2)c1` [Compound 25.0-B], for which the negative-log IC50 (pIC50) in test [1] (Table 3) was 9.10; with Human tumor cells (Homo sapiens), less than 6.30; with COS Cell (Table 4) it was less than 6.00.

Regarding `Cc1noc(C)c1C(=O)N1CCC(CC(=O)N2CCC([C@H]3c4ncc(Br)cc4CCc4cc(Cl)cc(Br)c43)CC2)CC1` [Compound 27.0-B], the values for the pIC50 (in test [1] (Table 3); with Human tumor cells (Homo sapiens); in the test with COS Cell (Table 4)) were 8.40, 6.43 and 8.00, respectively.

On to `O=C1N[C@H](C(=O)N2CCC(CC(=O)N3CCC([C@H]4c5ncc(Br)cc5CCc5cc(Cl)cc(Br)c54)CC3)CC2)CO1` [Compound 28.0-B], for which the results for the pIC50 (in test [1] (Table 3); in the test on Human tumor cells (Homo sapiens); in the test with COS Cell (Table 4)) were 8.64, 6.92 and 8.15, respectively.

Consider `NC(=O)c1cncc(C(=O)N2CCC(CC(=O)N3CCC([C@H]4c5ncc(Br)cc5CCc5cc(Cl)cc(Br)c54)CC3)CC2)c1` [Compound 29.0-B], for which the pIC50 in test [1] (Table 3) is 8.66; in the test with Human tumor cells (Homo sapiens), 6.30; in the test on COS Cell (Table 4), 7.68.

For `O=C(CC1CCN(C(=O)c2cn[nH]c2)CC1)N1CCC([C@H]2c3ncc(Br)cc3CCc3cc(Cl)cc(Br)c32)CC1` [Compound 31.0-B], the pIC50 in test [1] (Table 3) was 8.52; in the test with Human tumor cells (Homo sapiens), 6.82; in the test with COS Cell (Table 4), 8.15.

On to `CC(=O)N1CCC(CC(=O)N2CCC([C@H]3c4ncc(Br)cc4CCc4cc(Cl)cc(Br)c43)CC2)CC1` [Compound 36.0-B], for which the pIC50 in test [1] (Table 3) is 8.59; with Human tumor cells (Homo sapiens), 6.74; with Human tumor cells, 6.77; in the test with COS Cell (Table 4), 7.30.

As to `O=C(CC1CCN(C(=O)c2cccn2Cc2ccccc2)CC1)N1CCC([C@H]2c3ncc(Br)cc3CCc3cc(Cl)cc(Br)c32)CC1` [Compound 41.0-B], the negative-log IC50 (pIC50) in test [1] (Table 3) is 8.77; with Human tumor cells (Homo sapiens), less than 6.30; with COS Cell (Table 4), 7.52.

With `NC(=O)Cn1cccc1C(=O)N1CCC(CC(=O)N2CCC([C@H]3c4ncc(Br)cc4CCc4cc(Cl)cc(Br)c43)CC2)CC1` [Compound 42.0-B], the pIC50 in test [1] (Table 3) is 8.49; in the test with Human tumor cells (Homo sapiens), 6.51; in the test on COS Cell (Table 4), 7.57.

As to `CS(=O)(=O)n1cccc1C(=O)N1CCC(CC(=O)N2CCC([C@H]3c4ncc(Br)cc4CCc4cc(Cl)cc(Br)c43)CC2)CC1` [Compound 43.0-B], the pIC50 in test [1] (Table 3) is 8.42; with Human tumor cells (Homo sapiens), 6.70; with COS Cell (Table 4), greater than 8.00.

In the case of `O=C(CC1CCN(C(=O)c2ccc[n+]([O-])c2)CC1)N1CCC([C@H]2c3ncc(Br)cc3CCc3cc(Cl)cc(Br)c32)CC1` [Compound 46.0-B], the pIC50 in test [1] (Table 3) was 8.72; with Human tumor cells (Homo sapiens), 6.78; in the test with COS Cell (Table 4), 8.15.

Take `O=C(CC1CCN(C(=O)c2ccc(O)nc2)CC1)N1CCC([C@H]2c3ncc(Br)cc3CCc3cc(Cl)cc(Br)c32)CC1` [Compound 47.0-B]: the negative logarithm of the IC50 (pIC50) in test [1] (Table 3) is 8.54; in the test on Human tumor cells (Homo sapiens), 6.35; with COS Cell (Table 4), 7.46.

Turning to `O=C(CC1CCN(C(=O)c2cccnc2O)CC1)N1CCC([C@H]2c3ncc(Br)cc3CCc3cc(Cl)cc(Br)c32)CC1` [Compound 48.0-B], the pIC50 in test [1] (Table 3) is 8.68; in the test with Human tumor cells (Homo sapiens), less than 6.30; in the test with COS Cell (Table 4), 7.33.

Take `CC(C)(C)OC(=O)Cn1cccc1C(=O)N1CCC(CC(=O)N2CCC([C@H]3c4ncc(Br)cc4CCc4cc(Cl)cc(Br)c43)CC2)CC1` [Compound 61.0-B]: the negative logarithm of the IC50 (pIC50) in test [1] (Table 3) was 7.96.

In the case of `O=C(O)Cn1cccc1C(=O)N1CCC(CC(=O)N2CCC([C@H]3c4ncc(Br)cc4CCc4cc(Cl)cc(Br)c43)CC2)CC1` [Compound 62.0-B], the results for the pIC50 (in test [1] (Table 3); in the test on Human tumor cells (Homo sapiens); in the test with COS Cell (Table 4)) were 8.55, less than 6.30 and 6.15, respectively.

Consider `CC(=O)O[C@H]1CC[C@@H](C(=O)N2CCC(CC(=O)N3CCC([C@H]4c5ncc(Br)cc5CCc5cc(Cl)cc(Br)c54)CC3)CC2)CC1` [Compound 66.0-B], for which the pIC50 in test [1] (Table 3) is 8.14; with Human tumor cells (Homo sapiens), 6.36; with COS Cell (Table 4), 8.00.

Take `O=C(CC1CCN(C(=O)[C@H]2CC[C@@H](O)CC2)CC1)N1CCC([C@H]2c3ncc(Br)cc3CCc3cc(Cl)cc(Br)c32)CC1` [Compound 73.0-B]: the figures for the pIC50 (in test [1] (Table 3); with Human tumor cells (Homo sapiens); in the test with COS Cell (Table 4)) were 8.35, 6.44 and 7.62, respectively.

On to `O=C1C[C@@H](C(=O)N2CCC(CC(=O)N3CCC([C@H]4c5ncc(Br)cc5CCc5cc(Cl)cc(Br)c54)CC3)CC2)NC(=O)N1` [Compound 78.0-B], for which the negative logarithm of the IC50 (pIC50) in test [1] (Table 3) is 8.59; in the test on Human tumor cells (Homo sapiens), 6.77; with COS Cell (Table 4), 7.52.

As for `O=C(CC1CCN(C(=O)[C@@H]2CSCN2)CC1)N1CCC([C@H]2c3ncc(Br)cc3CCc3cc(Cl)cc(Br)c32)CC1` [Compound 80.0-B], the pIC50 in test [1] (Table 3) was 8.59; in the test on Human tumor cells (Homo sapiens) it was less than 6.30.

Turning to `O=C(CC1CCN(C(=O)c2ncccc2O)CC1)N1CCC([C@H]2c3ncc(Br)cc3CCc3cc(Cl)cc(Br)c32)CC1` [Compound 83.0-B], the pIC50 in test [1] (Table 3) was 8.49; in the test on Human tumor cells (Homo sapiens), 6.30; in the test on COS Cell (Table 4) it was 7.92.

Consider `O=C(CC1CCN(C(=O)c2ccoc2)CC1)N1CCC([C@H]2c3ncc(Br)cc3CCc3cc(Cl)cc(Br)c32)CC1` [Compound 84.0-B], for which the pIC50 was 8.07 in test [1] (Table 3), 7.00 with Human tumor cells (Homo sapiens) and 7.96 with COS Cell (Table 4).

As to `O=C(CC1CCN(C(=O)c2ccc(O)nc2)CC1)N1CCC([C@@H]2c3c(Br)cc(Cl)cc3CCc3cc(Br)c[n+]([O-])c32)CC1` [Compound 91.0-B], the pIC50 in test [1] (Table 3) was 8.60; in the test with Human tumor cells (Homo sapiens) it was less than 6.30; in the test on COS Cell (Table 4), 6.30.

`O=C(NC(=O)C(Cl)(Cl)Cl)O[C@H]1CC[C@@H](C(=O)N2CCC(CC(=O)N3CCC([C@H]4c5ncc(Br)cc5CCc5cc(Cl)cc(Br)c54)CC3)CC2)CC1` [Compound 93.0-B]: the negative-log IC50 (pIC50) is 8.24 in test [1] (Table 3), 6.39 in the test on Human tumor cells (Homo sapiens) and 7.52 in the test with COS Cell (Table 4).

For the compound `N#CN=C(Oc1ccccc1)N1CCC(CC(=O)N2CCN(C3c4ccc(Cl)cc4CCc4cc(Br)cnc43)CC2)CC1` (centres unmarked) [Example 1, PHENYL 4-[2-[4-(3-BROMO-8-CHLORO-6,11-DIHYDRO-5H-BENZO[5,6]CYCLOHEPTA[1,2-b]PYRIDIN-11-YL]-1-PIPERAZINYL]-2-OXOETHYL]-N-CYANO-1-PIPERIDINE-CARBOXIMIDATE], in test [1] (@ 0.3 μM, Table 2), the “FPT inhibition (column FPT IC50)” value turned out to be 44%.

`N#CNC(=N)N1CCC(CC(=O)N2CCN(C3c4ccc(Cl)cc4CCc4cc(Br)cnc43)CC2)CC1` (centres unmarked) [Example 2, 4-[2-[4-(3-BROMO-8-CHLORO-6,11-DIHYDRO-5 H-BENZO[5,6]CYCLOHEPTA[1,2-b]PYRIDIN-11-YL)-1-PIPERAZINYL]-2-OXOETHYL]-N-CYANO-1-PIPERIDINE-CARBOXIMIDAMIDE] had a pIC50 in test [1] (Table 2) of 7.00.

For the compound `N#CN1CCC(CC(=O)N2CCN(C3c4ccc(Cl)cc4CCc4cc(Br)cnc43)CC2)CC1` (centres unmarked) [Example 4], the pIC50 in test [1] (Table 2) was 7.27.

For the compound `N=C(NS(N)(=O)=O)N1CCC(CC(=O)N2CCN(C3c4ccc(Cl)cc4CCc4cc(Br)cnc43)CC2)CC1` (centres unmarked) [Example 6, 4-[2-[4-(3-BROMO-8-CHLORO-6,11-DIHYDRO-5H-BENZO[5,6]CYCLOHEPTA[1,2-b]PYRIDIN-11-YL)-1-PIPERAZINYL]2-OXOETHYL]-N-SULFAMOYL-1-PIPERIDINE-CARBOXIMIDAMIDE], in test [1] (Table 2), the pIC50 was 6.92.

`NC(=NO)N1CCC(CC(=O)N2CCN(C3c4ccc(Cl)cc4CCc4cc(Br)cnc43)CC2)CC1` (centres unmarked) [Example 11, 4-[2-[4-(3-BROMO-8-CHLORO-6,11-DIHYDRO-5 H-BENZO[5,6CYCLOHEPTA[1,2-b]PYRIDIN-11-YL-1-PIPERAZINYL]-2-OXOETHYL]-N-HYDROXY-1-PIPERIDINE-CARBOXIMIDATE] had a pIC50 in test [1] (Table 2) of 7.24. This pIC50 lies 0.32 log units higher than the previous one.

`NC(=O)NC(=O)N=C(Oc1ccccc1)N1CCC(CC(=O)N2CCN(C3c4ccc(Cl)cc4CCc4cc(Br)cnc43)CC2)CC1` (centres unmarked) [Example 13, PHENYL N- [[(AMINOCARBONYL)AMINO]CARBONYL]4-[2-[4-(3-BROMO-8-CHLORO-6,11-DIHYDRO-5 H-BENZO[5,6CYCLOHEPTA-[1,2-b]PYRIDIN-11-YL)-1-PIPERAZINYL]-2-OXOETHYL]-1-PIPERIDINECARBOXIMIDATE] gave a pIC50 in test [1] (Table 2) of 6.85.

For `N=C(NC(=O)NC(N)=O)N1CCC(CC(=O)N2CCN(C3c4ccc(Cl)cc4CCc4cc(Br)cnc43)CC2)CC1` (centres unmarked) [Example 14, N-[[(AMINOCARBONYL)AMINO]CARBONYL]-4-[2-[4-(3-BROMO-8-CHLORO-6,11-DIHYDRO-5H-BENZO[5,6]CYCLOHEPTA[1,2-b]-PYRIDIN-11-YL)-1-PIPERAZINYL]2-OXOETHYL]-1-PIPERIDINECARBOXIMIDAMIDE], in test [1] (Table 2), the pIC50 was 7.11.

Consider `N#CN1CCC(CC(=O)N2CCC([C@H]3c4ncc(Br)cc4CCc4cc(Cl)cc(Br)c43)CC2)CC1` [Example 26], for which the pIC50 was 8.64 in test [1] (Table 2) and 7.92 in the test with COS Cell (Table 2).

For the compound `N=C(Oc1ccccc1)N1CCC(CC(=O)N2CCC(C3c4ccc(Cl)c(Br)c4CCc4cc(Br)cnc43)CC2)CC1` (centres unmarked) [Example 27], the pIC50 in test [1] (Table 2) was 7.41.

In general, inhibition refers to the drop in the measured response relative to a control, in per cent. High values mean a response far below the control, low ones a response near the control. In turn, `N=C(N)N1CCC(CC(=O)N2CCC(C3c4ccc(Cl)c(Br)c4CCc4cc(Br)cnc43)CC2)CC1` (centres unmarked) [Example 28] gave a pIC50 in test [1] (Table 2) of 7.64. The compound also showed an inhibition at 1 µM in the test on COS Cell (@ 1 μM, Table 2) of 0%.
